Data as given in patent publication US20150368617A1, “METHOD FOR FORMING ENDOTHELIAL CELLS” (Korea Advanced Institute of Science and Technology (KAIST), priority 2012, published 2015).

How the values were obtained:
Format in all cases: cell-based, mouse
ESC = assay: Estimation of number of ECs generated from one ESC in the 2D Matrigel system; details: day 8.5
Procedure: FIG. 16. Estimation and comparison of number of ECs generated from one ESC grown with indicated agents in the 2D Matrigel system at day 6.5 and 8.5. Estimation was calculated from 5 independent incubations.
To maximize the amount of ECs obtained from ESC, we expanded the ICAM2+ ECs for 2 days using the same culture system with VEGF-A and Y27632 (FIG. 14A). When the ECs were grown for 2 days without either VEGF-A or Y27632, the population of CD31+/CD144+ ECs underwent a decrease of ˜30% from the initial population of ˜90% (FIG. 14B-D). […] This way, we were further able to obtain ˜4.2-fold expansion of CD31+/CD144+ ECs from the ICAM2+ ECs (FIGS. 14B-F) In the presence of VEGF-A, Y27632 promoted the adhesion of ICAM2+ ECs onto the plate by 1.3-fold at 6 hrs after plating (FIG. 14G). In these purified ECs, Y27632 and VEGF-A each promoted the proliferation of ECs to a similar level, and combination of Y27632 and VEGF-A promoted EC proliferation to a greater degree. […] Based on these findings, we conclude that further expansion of high purity ECs (>90%) could be achieved from ESC by combination of simultaneous ROCK suppression and VEGF-stimulation—these high purity ECs are hereafter referred to as “VEGF-A plus Y27632-induced and anti-ICAM2 antibody-sorted ECs (VYI-ECs)” (FIG. 14A). […]

Flk1+ MPCs [1] = assay: Cell adhesion assay, Flk1+ MPCs; details: 6 hrs
Procedure: Sorted Flk1+ MPCs or ICAM2+ ECs were plated onto Matrigel coated plates at a density of 10,000 cells/cm^2. Six hrs after plating, non-adherent cells were removed by washing and the cell number of adherent cells was counted following trypsinization. The percentage of adherent cells was calculated as (counted cell number/initial seeded cell number)×100.

αMHC GFP+CMs = assay: Sorted αMHC-GFP+ CMs in feeder-free condition; details: Y27632 10 μM
Procedure: Analysis and sorting for CMs were performed at day 10.5. We harvested differentiated Flk1+ MPCs on OP9 cells with 0.25% trypsin-EDTA or dissociation buffer (Invitrogen). Cardiac troponin-T (cTnT)+ and ┌ smooth muscle actin (SMA)+ cells were analyzed after permeabilization using Cytofix/Cytoperm solution (BD Biosciences) for 15 min. After permeabilization, the cells were incubated for 30 min with anti-mouse cTnT (NeoMarkers) monoclonal antibody. After washing in 10% Perm/Wash buffer (BD Biosciences), the cells were incubated for 10 min with Alexa Fluor® 647 anti-mouse IgG (Invitrogen). After washing in 10% Perm/Wash buffer (BD Biosciences), the cells were incubated for 30 min with Cy3-conjugated anti-┌ SMA (clone 1A4, Sigma). We sorted out CMs using ┌ MHC GFP. Sorted Flk1+ MPCs on OP9 cells were harvested with 0.25% trypsin-EDTA or dissociation buffer (Invitrogen) and cells were washed using phosphate buffered saline/10% FBS twice. Dead cells were excluded using 7-aminoactinomycin D (Invitrogen). Then, we sorted out ┌ MHC GFP+CMs and plated on to 0.1% gelatin coated dish in the differentiation medium. The medium was changed every 2 days. Analyses and sorting were performed by FACS Aria II (Beckton Dickinson). Data were analyzed using FlowJo Version 7.5.4 software (TreeStar). […]

ICAM2+ ECs = assay: Apoptosis assay (Annexin V/PI) in ICAM2+ ECs
Procedure: FIGS. 15A-15D. ROCK suppression continuously promotes the expansion of ECs. ICAM2+ ECs were further incubated with PBS (Control), Y27632 (10┌ M), VEGF-A (50 ng/ml; VA) or Y27632 (10┌ M) plus VEGF-A (50 ng/ml) for 2 days, and analyses were performed at day 8.5. (FIG. 15A) Representative FACS analysis showing cell cycle in ICAM2+ ECs at 12 hrs. (FIG. 15B) % of ICAM2+ ECs under each phase of cell cycle at 12 hrs. Each group, n=3. *p<0.01 versus Control; ^#p<0.01 versus VEGF-A. (FIG. 15C) Representative FACS analysis of Annexin V+/PI− apoptotic ECs. (FIG. 15D) % of Annexin V+/PI− ECs. Each group, n=3. *p<0.01 versus Control.
(§1) Apoptosis assay was performed as previously described. To determine the cell cycle, BrdU/7-AAD cell cycle analysis was performed according to the manufacturer's instructions (BD Pharmingen™). Briefly, cells were incubated with BrdU (1 mM) for 1 hr, dissociated with dissociation buffer, and stained with anti-CD144 antibody. The cells were then fixed, permeabilized, and fixed once more, followed by 1 hr incubation with DNase I (200 U) at 37┌ C. After incubation with FITC-conjugated anti-BrdU antibody for 20 min at RT, the cells were stained with 7-AAD. The cells were analyzed by FACS Aria II and the data were analyzed using FlowJo software.

Flk1+ MPCs [2] = assay: Apoptosis assay (Annexin V/PI) in differentiating Flk1+ MPCs; details: 6 and 36 hrs
Procedure: as §1

Structure (SMILES): C[C@@H](N)[C@H]1CC[C@H](C(=O)Nc2ccncc2)CC1 [Y27632]
- number of ECs generated from one ESC (from ˜73 Flk1+ MPCs) (ESC): ~36
- adhesion of Flk1+ cells onto the plates compared to control (Flk1+ MPCs [1]): 1.3 fold
- self-beating CMs compared to control (αMHC GFP+CMs; day 12.5): much more self-beating CMs
- area of self-beating CMs compared control (αMHC GFP+CMs; day 14.5, confluent state): ~2.8 fold
- apoptosis of ECs (ICAM2+ ECs): mildly inhibited
- population of Annexin V+/PI- apoptotic cells (Flk1+ MPCs [2]): did not significantly change
